Test results reported in the NIST ThermoML archive (doi:10.1016/j.jct.2018.02.017).

Columns and labels:
[1] = for mass density: 100 kPa, Liquid, Vibrating tube method; for Triple point temperature: DSC
[2] = xn = mol fraction of the nth substance listed; details: 100 kPa, Liquid, Vibrating tube method
[3] = mn = molality of the nth substance listed, in mol/kg; details: 298.15 K, 100 kPa, Liquid, Falling or rolling sphere viscometry
[4] = excess molar enthalpy (molar enthalpy of mixing); xn = mol fraction of the nth substance listed; details: 100 kPa, Liquid, Flow calorimetry
[5] = Molar enthalpy of transition or fusion; details: DSC

CCCCn1cc[n+](C)c1.N#CN=C=[N-] [1-butyl-3-methylimidazolium dicyanamide]
[1]
Details	mass density [kg/m3]
288.15 K	1065.64
293.15 K	1062.04
298.15 K	1059.22
303.15 K	1056.04
308.15 K	1052.88
313.15 K	1049.74
318.15 K	1046.63
323.15 K	1043.5
328.15 K	1040.4
333.15 K	1037.38

CCCC[N+]1(C)CCCC1.N#CN=C=[N-] [1-butyl-1-methylpyrrolidinium dicyanamide] + O
Details	excess molar enthalpy, [4] [kJ/mol]	mass density, [2] [kg/m3]
288.15 K, x1 = 0.000366	-0.00201	999.262
288.15 K, x1 = 0.000732	-0.00384	999.415
288.15 K, x1 = 0.001097	-0.00559	999.558
288.15 K, x1 = 0.001462	-0.00731	999.693
288.15 K, x1 = 0.001827	-0.00885	999.827
288.15 K, x1 = 0.002192	–	999.945
298.15 K, x1 = 0.000366	-0.00113	997.161
298.15 K, x1 = 0.000732	-0.00216	997.266
298.15 K, x1 = 0.001098	-0.00311	997.365
298.15 K, x1 = 0.001463	-0.00403	997.458
298.15 K, x1 = 0.001828	-0.00491	997.547
298.15 K, x1 = 0.002193	-0.00577	997.632
308.15 K, x1 = 0.000366	-0.00026	994.108
308.15 K, x1 = 0.000731	-0.00042	994.175
308.15 K, x1 = 0.001097	-0.00053	994.237
308.15 K, x1 = 0.001462	-0.00067	994.294
308.15 K, x1 = 0.001827	-0.00084	994.349
308.15 K, x1 = 0.002192	-0.00092	994.4
318.15 K, x1 = 0.000366	0.00059	990.258
318.15 K, x1 = 0.000731	0.00126	990.295
318.15 K, x1 = 0.001097	0.00197	990.326
318.15 K, x1 = 0.001462	0.00269	990.353
318.15 K, x1 = 0.001826	0.00343	990.377
318.15 K, x1 = 0.002192	0.00417	990.398

[3]
Details	viscosity [mPa·s]
m1 = 0.01007	0.8956
m1 = 0.01538	0.8983
m1 = 0.03088	0.9043
m1 = 0.04839	0.9119
m1 = 0.0703	0.921
m1 = 0.09073	0.9308

CCCC[N+]1(C)CCCC1.O=S(=O)([O-])C(F)(F)C(F)F
Details	Molar enthalpy of transition or fusion, [5] [kJ/mol]	Triple point temperature, [1] [K]
Crystal 1	10.9	318.5
Crystal 2	12.6	279.3

CCCC[N+]1(C)CCCC1.O=S(=O)([O-])C(F)(F)C(F)F + O
[3]
Details	viscosity [mPa·s]
m1 = 0.01177	0.8996
m1 = 0.02018	0.9033
m1 = 0.02912	0.9095
m1 = 0.05104	0.9233
m1 = 0.07113	0.934
m1 = 0.09124	0.9463

CCCC[N+]1(C)CCCC1.N#CN=C=[N-] [1-butyl-1-methylpyrrolidinium dicyanamide]
[1]
Details	mass density [kg/m3]
288.15 K	1019.08
293.15 K	1016.25
298.15 K	1013.43
303.15 K	1010.62
308.15 K	1007.83
313.15 K	1005.05
318.15 K	1002.29

CCCCn1cc[n+](C)c1.N#CN=C=[N-] [1-butyl-3-methylimidazolium dicyanamide] + O
Details	excess molar enthalpy, [4] [kJ/mol]	mass density, [2] [kg/m3]
288.15 K, x1 = 0.000389	0.00023	999.45
288.15 K, x1 = 0.000777	0.00058	999.8
288.15 K, x1 = 0.001165	0.00097	1000.14
288.15 K, x1 = 0.001552	0.0014	1000.47
288.15 K, x1 = 0.00194	0.00183	1000.79
288.15 K, x1 = 0.002327	0.00229	1001.11
298.15 K, x1 = 0.000388	0.00083	997.35
298.15 K, x1 = 0.000777	0.00179	997.65
298.15 K, x1 = 0.001165	0.00278	997.93
298.15 K, x1 = 0.001552	0.00378	998.21
298.15 K, x1 = 0.001939	0.0048	998.48
298.15 K, x1 = 0.002327	0.00586	998.75
308.15 K, x1 = 0.000389	0.00147	994.29
308.15 K, x1 = 0.000777	0.00309	994.54
308.15 K, x1 = 0.001165	0.00473	994.79
308.15 K, x1 = 0.001552	0.00635	995.02
308.15 K, x1 = 0.00194	0.00797	995.25
308.15 K, x1 = 0.002327	0.00962	995.48
318.15 K, x1 = 0.000388	0.00214	990.43
318.15 K, x1 = 0.000777	0.00443	990.65
318.15 K, x1 = 0.001165	0.00672	990.85
318.15 K, x1 = 0.001552	0.00898	991.06
318.15 K, x1 = 0.00194	0.0113	991.25
318.15 K, x1 = 0.002328	0.0135	991.45

[3]
Details	viscosity [mPa·s]
m1 = 0.01061	0.8936
m1 = 0.01522	0.895
m1 = 0.03084	0.901
m1 = 0.05091	0.9086
m1 = 0.06874	0.9157
m1 = 0.08186	0.9219

CCCCn1cc[n+](C)c1.O=S(=O)([O-])C(F)(F)C(F)F + O
[3]
Details	viscosity [mPa·s]
m1 = 0.0216	0.9005
m1 = 0.02818	0.9042
m1 = 0.05086	0.9161
m1 = 0.06272	0.9229
m1 = 0.0705	0.9269
m1 = 0.0811	0.9328

CCCCn1cc[n+](C)c1.O=S(=O)([O-])C(F)(F)C(F)F
[1]
Details	mass density [kg/m3]
288.15 K	1355.49
293.15 K	1351.46
298.15 K	1347.31
303.15 K	1343.19
308.15 K	1339.08
313.15 K	1335.01
318.15 K	1330.9
323.15 K	1326.84
328.15 K	1322.8
333.15 K	1318.77
